These results are taken from a melting point compilation (Tetko et al.; mined from patent text by program, amines drawn as free bases though some values may be those of a salt).

The term melting point denotes the temperature of the solid-liquid transition. Regarding `Cc1nnc(NCCCN2CCCC2=O)c2c1cc1ccccn12`, the melting point is 257 to 258 °C.
`O=C(NC(=S)NC1CCN(CCc2c[nH]c3ccccc23)CC1)c1ccccc1` came in with a melting point of 212 to 215 °C.
In turn, `COC(=O)c1ccc(-c2nc(NCc3ccc(OC)c(Cl)c3)c3c(n2)sc2ccccc23)cc1` had a melting point of 203 to 204 °C.
The molecule `Oc1ccc(-c2nn(CC3CCCCC3)c3c(C(F)(F)F)cccc23)c(O)c1` had a melting point of 117 to 118 °C.
On to `CC(C)CCSc1cc(C(=O)O)cc(N=Nc2cc(C(=O)O)cc(SCCC(C)C)c2C(=O)c2ccccc2)c1C(=O)c1ccccc1`, for which the melting point lay in the range of 143 to 144 °C.
Take `O=C(/C=C/c1cccnc1)NCCc1cccc(O)c1`: the melting point fell in the range of 163 to 164 °C.
With `CC(=O)c1cc(NC(=O)c2ccccc2)cc(C(C)=O)c1`, the melting point lay in the range of 188 to 189 °C.
In the case of `CC12C=CCC1C1CCC3CC(=O)CCC3(C)C1CC2` (stereo unspecified) it was 140 to 141 °C.
The molecule `CC(C)(C)OC(=O)N[C@@H](CC(=O)OCc1ccccc1)C(=O)NCCc1ccc(OCC(=O)OCc2ccccc2)cc1` yielded a melting point of 178 to 180 °C.
In the case of `CCc1nc2c(cnn2CC)c(NC2CCOCC2)c1CNC(=O)c1cccc(C(=O)NCc2cc(Cl)cc(-c3cccc(CN4CC5CC4CN5)c3)c2)c1` (stereo unspecified) it was 130 to 133 °C; in that of `CCOC(=O)c1c(NC23CC4CC(CC(C4)C2)C3)n[nH]c1C`, 190 to 203 °C; in that of `Cc1ccc2c(c1)C1=NN(C(=O)c3cccnc3)CC1CO2` (stereo unspecified), 177 to 178 °C.
As for `Cc1ccc2c(c1)Oc1sc(C)cc1C(=O)N2`, the melting point lay within 211 to 215 °C.
Molecule `CCn1c(COC(N)=O)nc(C2CC2)c1Sc1cc(C#N)cc(C#N)c1` yielded a melting point of 170 to 172 °C.
The molecule `CCN1CC(NC(=O)Nc2cc(Cl)cc(Cl)c2)CN1CC` came in with a melting point of 165 to 167 °C.
In the case of `CN1CCCCC1CCc1ccccc1NC(=O)c1ccc(C(C)(C)C)cc1` (stereo unspecified) it was 101 to 120 °C; in that of `CNCc1ccc([C@H]2CC[C@H](OC(=O)Cc3ccc(Cl)cc3)CC2)cc1`, 65 to 67 °C; in that of `COc1nc(Cl)ccc1C=O`, 62 to 64 °C.
As for `COc1ccc(C2=C(c3ccccc3)CCCc3cc(O)ccc32)cc1`, the melting point lay within 232 to 233 °C.
For `CC(C)(C)OC(=O)N1CCc2ccc(C(=O)NC3COCCn4c3nc(-c3ccncn3)cc4=O)cc2C1` (racemic), the melting point is 252 to 254 °C.
With `NC(=O)Cc1cccc(C(=O)c2ccc(F)cc2)c1N`, the melting point was in the range of 184 to 186 °C.
For `COn1c(C)nc2c(NCc3c(C)cccc3C)cc(C(=O)O)cc21` the value was 248 to 249 °C; for `CCCOc1ccccc1-c1cccc(=O)[nH]1`, 134 to 136 °C; for `COc1ccc2nc(CBr)sc2c1`, 78 to 81 °C.
With `CC(=O)c1cccn1Cc1ccco1`, the melting point was 42 to 43 °C.
With `Oc1cccc2c1c1ccccc1n2Cc1ccccc1`, the melting point lay within 119 to 122 °C.
For `O=C(O)C[C@H](C(=O)N[C@H](CO)Cc1ccccc1)n1cc(-c2ccc(-c3ccccc3)cc2)cn1` the value was 154 to 159 °C; for `COc1cc(-c2cc(-c3ccc(-c4c(Cc5ccccc5)sc5ccccc45)cc3)ccc2OCC(=O)O)cc(OC)c1OC`, 93 to 94 °C; for `CCCCN(C(=O)c1ccccc1)C1CC(C)(C)N(OC(=O)c2ccccc2)C(C)(C)C1`, 155 to 159 °C.
Molecule `CCOC(=O)CCC(=O)Nc1ccc(-c2c[nH]c(=O)cn2)cc1` displayed a melting point of 250 °C.
The molecule `COC(=O)c1cc(C(=O)NCCN(C)C)c2cc(Cc3ccc(F)cc3)cnc2c1O` gave a melting point of 115 to 116 °C.
Molecule `CN(C)[C@H]1CC[C@@H](C(=O)N2CCC(c3[nH]nc4c3C(=O)c3c(NC(=O)NN5CCOCC5)cccc3-4)CC2)CC1` gave a melting point of 123 to 125 °C.
In turn, `CC(=O)N1CCC2(CC1)Cn1cc([N+](=O)[O-])nc1O2` returned a melting point of 232 to 234 °C.
Molecule `CS(=O)(=O)N(C(=O)c1cc(Oc2ccc(C(F)(F)F)cc2Cl)ccc1[N+](=O)[O-])C(=O)c1cc(Oc2ccc(C(F)(F)F)cc2Cl)ccc1[N+](=O)[O-]` registered a melting point of 166 to 168 °C.
The molecule `Cc1oc(-c2ccccc2)nc1Cc1cc2cc(CC3OC(=O)NC3=O)ccc2o1` (stereo unspecified) came in with a melting point of 190 to 191 °C.
Regarding `Cc1c(CCNC(=O)OC(C)(C)C)c2cc(S(=O)(=O)c3ccc(C(F)(F)F)cc3)ccc2n1C`, the melting point is 124 to 128 °C.
Regarding `FCc1cccc(C#CCCc2cnc3cc(F)c(F)cc3n2)n1`, the melting point was 135 to 138 °C.
In the case of `c1ccc(C(OC2CCN(CCOc3ccc4nncn4n3)CC2)c2ccccc2)cc1` it was 149 to 150 °C; in that of `CCc1c(C(=O)OC(C)C)ncc2[nH]c3ccc(NC(C)=S)cc3c12`, 158 to 160 °C.
In the case of `COC(=O)c1ccc(C=CC(=O)N2CCc3c([nH]c4ccccc34)C2c2ccc3c(c2)CCO3)nc1` (stereo unspecified) it was over 260 °C; in that of `CCCOc1nc(NC(C)=O)nc2ccc(Cl)nc12`, 191 °C; in that of `CC(C)(C)C(O)C(NC(=O)c1ccccc1)n1ccnc1` (stereo unspecified), 143 °C.
On to `CC(C)(CNC=O)c1ccc2nc(C3CCNCC3)[nH]c2c1`, for which the melting point lay within 234 to 237 °C.
`CCOC(=Cc1ccc(-c2cccc(N(C)C(=O)NC3CCCCC3)c2)cc1)C(=O)O` had a melting point of 85 °C.
Molecule `CC(C)n1nc(O)ccc1=O` returned a melting point of 148 °C.
Regarding `COC(=O)CC1Oc2ccccc2NC1=O` (stereo unspecified), the melting point is 140 °C.
For `C=C1N(CCC)C(=O)OC12CCNCC2` the value was 106 to 108 °C; for `CC(C)c1cccc(C(C)C)c1NC(=O)CN1CN(c2ccccc2)C2(CCCCC2)C1=O`, 251 to 253 °C; for `COc1ccc2c(c1)Oc1ccccc1C2`, 72 to 74 °C.
Consider `CCNC(=O)c1nc(Cl)c(Cl)[nH]1`, for which the melting point amounted to 146 °C.
The molecule `CC1(C)CC(=O)C2C(=NC3=C(C(=O)CC(C)(C)C3)C2c2ccc(C#N)c([N+](=O)[O-])c2)C1` (stereo unspecified) showed a melting point of 274 to 275 °C.
The molecule `Cc1csc(C)c1N(N)C(=O)CN` displayed a melting point of 68 to 70 °C.
In the case of `CC1CCc2cc3c(cc21)OCC(=O)CO3` (stereo unspecified) it was 79 to 80 °C.
In the case of `O=C(O)c1ccc(-c2csc(-c3ccncc3)n2)cc1`, the melting point was over 300 °C.
For the molecule `Cc1ccc(OC2CCN(C(=O)C(=O)Nc3ccc4c(c3)OCC(=O)N4)CC2)cc1`, the melting point was in the range of 226 to 228 °C.
On to `CC(C)Nc1cccnc1N1CCN(C(=O)c2ccc(C(=O)NCCOCCO)cc2)CC1`, for which the melting point stood at 116 °C.
Molecule `COC(=O)c1cccc(OCCC(C#N)NC(=O)C(Cc2cccc(C)c2)NC(=O)C(c2ccccc2)c2ccccc2)c1` (stereo unspecified) gave a melting point of 152 to 153 °C.
For `CCCCCCCCS(=O)(=O)NCCC(=O)O`, the melting point is 122 °C.
In the case of `O=C(O)C1=NN(c2cccc(Cl)c2)C(c2ccccc2)CC1` (stereo unspecified) it was 157 to 158 °C; in that of `N#CN(Cc1ccccc1)c1ccccn1`, 65 to 66 °C; in that of `CC(C)(C)c1nc(C#N)nc(C(C)(C)C)c1O`, 203 to 205 °C.
`O=C(CC(c1ccccc1)(c1ccccc1)c1ccccc1)N1CCC(O)(Cc2ccccc2)CC1`: the melting point lay in the range of 150 to 166 °C.
Regarding `Brc1ccc2c3c(cccc13)C(NCCCCCn1ccnc1)=N2`, the melting point was in the range of 138 to 140 °C.
Molecule `COC(=O)C#CCCc1c(C)c(OC)c(C)c(C)c1OC` came in with a melting point of 71 to 72 °C.
`CC1=CC(C)(N)NC=C1` (stereo unspecified) came in with a melting point of 79.5 to 81 °C.
For `Cc1[nH]c2ccc(C(=O)NS(=O)(=O)CCCCl)cc2c1Cc1ccc(Cl)cc1Cl`, the melting point lay within 95.5 to 96.2 °C.
In turn, `CNC(=O)c1ccc(N2CCNCC2)c(F)c1` came in with a melting point of 174 to 193 °C.
In the case of `Cc1ccccc1-c1ccc(C(=O)N2Cc3cccn3Cc3ccccc32)cc1C` it was 145 to 148 °C; in that of `COc1ccc(CC(=O)c2c(O)c3cccnc3n(-c3ccccc3)c2=O)c(OC)c1`, 200 to 202 °C; in that of `O=C(O)Cc1ccc(N2CC3=C(CC=CC3)C2=O)cc1`, 198 to 200 °C.
`CC1(C)OC(=S)Nc2ccc(-c3ccccc3F)cc21` came in with a melting point of 171 to 173 °C.
`CNc1nc(Br)cc(Sc2ccc([N+](=O)[O-])cc2)n1`: the melting point lay in the range of 204 to 205 °C.
For `c1ccc2oc(-c3ccc(-c4nc5ccccc5o4)cc3)nc2c1` the value was 318 to 328 °C; for `COC(=O)N1CCN(c2n[nH]c(-c3ccc(Cl)cc3)c2-c2ccncc2)CC1`, 264 to 265 °C.
For `CC(=O)Nc1ccc(-c2cccc(C3=NC(C)(C)Cc4ccc5c(c43)CC(C)(C)O5)c2)cc1` the value was 198 to 200 °C.
Turning to `Cc1ccc(-c2cc3c(s2)CCCC(C(=O)Nc2ccc(CN(C)C4CCOCC4)cc2)=C3)cc1`, the melting point was 201 to 203 °C.
`CSc1cnc2sccc2c1O` displayed a melting point of 203 to 205 °C.
In the case of `C=CCOc1ccc(C(=O)C#Cc2c[nH]c3ccccc23)c(O)c1` it was 228 to 230 °C.
`C[C@H]1C[C@H](OC(=O)C(C)(C)Oc2ccc(-c3ccccc3)cc2)CC(C)(C)C1` (relative stereo): the melting point is 96 °C.
Molecule `Cc1ccc2c(c1)c1c(n2C)CC(C(=O)O)CC1` (stereo unspecified) registered a melting point of 84 to 85 °C.
In the case of `CC(C)(C)NC(=O)[C@@H]1CC(OCCCCF)CN1C(=O)[C@@H](O)[C@H](Cc1ccccc1)NC(=O)[C@H](CC(N)=O)NC(=O)OCc1ccccc1` (stereo partly specified), the melting point lay within 68 to 71 °C.
`CC1(Cc2ccc(Cl)c(Cl)c2)OC(=O)N(Cc2cc(C(F)(F)F)cc(C(F)(F)F)c2)C1=O` (stereo unspecified) came in with a melting point of 80 to 82 °C.
`O=[N+]([O-])c1ccc(Nc2cccc(-n3cccc3)c2)c([N+](=O)[O-])c1` registered a melting point of 116 to 118 °C.
`CN(Cc1ccccc1)C1=N/C(=C\c2c[nH]c3ncc(Cl)cc23)C(=O)N1`: the melting point is 310 °C.
The molecule `O=C(Nc1ccc(Oc2ccnc(NC3CCC3)n2)c2ccccc12)c1cc(F)cc(N2CCCCC2)c1` came in with a melting point of 112 to 114 °C.
With `CCOC(=O)Cc1ccc(Cn2c(-c3ccc(OC4CCCC4)cc3)c(C)c3cc(OCc4ccccc4)ccc32)cc1`, the melting point is 96 to 98 °C.
